According to patent publication US20160256371A1, “PHOTOSTABLE COMPOSITIONS COMPRISING PARA-ALKOXYL PHENYL SUBSTITUTED PROPENOIC ACID (APP) DERIVATIVES” (HALLSTAR INNOVATIONS CORP., priority 2015, published 2016):

Assay: Photostability of BMDBM/OMC compositions in acetonitrile under UV irradiation, with and without APP analogue
Type: physicochemical
Conditions: no APP
Procedure: Comparisons were performed to evaluate the abilities of APP derivatives of Formula I, Ia, Ib, Ic, Id, Ie, If, or combination thereof to photostabilize photoactive compounds. UV light exposure is often measured in MED rather than a measurement of time. MED relates to the minimal dosage of UV exposure required to result in redness 24 hours after exposure. Although technically an individualized measurement that would vary depending on the sensitivity of an individual's skin, MED measurements have been standardized with the advent of UV bulbs and lamps. FIG. 1 illustrates the photoinstability of a composition containing BMDBM and OMC. […] Absorption was measured for wavelengths 250 nm to 500 nm in length. BMDBM absorbs wavelengths around 375 nm in length, which can be seen as a distinct peak on the line illustrating the composition which was not irradiated with UV light. […] FIG. 2 illustrates the photostabilization of a photoactive composition by the addition of an APP analogue of Formula I. […] The APP analogue was a 1:1 blend of Formula Ia and Formula Ib. […] FIG. 3 illustrates the percentage of BMDBM remaining in compositions after irradiation with 15 MED of UV light. […] The APP analogue was a 1:1 blend of Formula Ia and Formula Ib.

BMDBM absorption peak at 375 nm after UV irradiation (acetonitrile solution, 10 ppm BMDBM and 10 ppm OMC, 15 MED versus 0 MED, FIG. 1): substantially diminished
percentage of BMDBM remaining capable of absorbing light at 375 nm after irradiation (composition of 10 ppm BMDBM and 10 ppm OMC, 15 MED of UV light, FIG. 3): 2.9%
Compound: COc1ccc(C(=O)CC(=O)c2ccc(C(C)(C)C)cc2)cc1 [BMDBM, 4-tert-butyl-4-methoxy-dibenzoylmethane]
